The target in one test is T1, IRAK4 protein (Homo sapiens, UniProt Q9NWZ3).
T1 construct: endogenous in cells; host or cells: primary human monocyte-derived dendritic cells from PBMC donors
T1 sequence (Q9NWZ3 1-460): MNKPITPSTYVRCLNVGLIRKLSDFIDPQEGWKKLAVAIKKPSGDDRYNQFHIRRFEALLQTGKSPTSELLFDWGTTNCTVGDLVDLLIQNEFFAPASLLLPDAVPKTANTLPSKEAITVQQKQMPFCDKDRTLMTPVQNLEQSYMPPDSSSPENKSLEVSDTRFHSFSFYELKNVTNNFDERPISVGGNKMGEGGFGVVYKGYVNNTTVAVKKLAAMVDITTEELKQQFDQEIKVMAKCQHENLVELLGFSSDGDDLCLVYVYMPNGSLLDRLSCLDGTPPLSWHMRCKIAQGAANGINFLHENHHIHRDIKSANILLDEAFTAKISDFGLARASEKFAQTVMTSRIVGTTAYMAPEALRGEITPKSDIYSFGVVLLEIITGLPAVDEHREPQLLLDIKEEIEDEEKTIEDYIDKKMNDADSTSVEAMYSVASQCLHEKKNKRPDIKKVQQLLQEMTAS
In words: AlphaLISA assay of IRAK4 protein levels in cell lysates. As to conditions: 16 nM, 80 nM, 400 nM and 2000 nM; AAV.SAN024 MOI 1e5 24 hrs. The test is classed as cell-based. As to the method:
AlphaLISA assay. This assay was performed to measure the levels of IRAK4 protein in the cells. The protocol was followed as per manufacturer's recommendation Perkin Elmer (Catalog #AL3117C). Briefly, cells were lysed and 5 μL of lysates were added to Anti-IRAK4 Acceptor Beads and incubated for 30 min at 23° C., then Biotinylated Anti-IRAK4 Antibody was added and incubated for 60 min at 23° C. Finally, SA-donor beads are added and 30 min later plates are read using EnVision-Alpha Reader (615 nm) https://resources.perkinelmer.com/lab-solutions/resources/docs/MAN_AlphaLISA_IRAK4_AL3117.pdf?_gl=1*7jzf5d*_ga*MzQ4MTQ1NzA3LjE2NDY2NzY5MjI.*_ga_W34ZJ1Z1Q1*MTY3NzE5MjAyOS4zLjEuMTY3NzE5MjA2Mi4yNy4wLjA.&_ga=2.178521252.1409175695.1677192029-348145707.1646676922. The same protocol was used to measure phosphorylation levels of NFkB using AlphaLISA SureFire Ultra p-NFκB (Ser536) Assay Kit—High Volume Catalog #ALSU-PNFKB-A-HV.
To determine the activity of PROTAC degrader, human monocytic dendritic cells were treated with different doses of drugs as indicated (16 nM, 80 nM, 400 nM and 2000 nM) and the same cells were infected with AAV.SAN024 at MOI of 1e5 for 24 hrs. Cell lysates were analysed for IRAK4 degradation. No significant difference was observed between the control (untretaed/uninfected) cells as compared to the treated and AAV. SAN024 infected cells but the AAV.

The test system of test [1] is C57BL/6J mice injected with AAV (LacZ transgene). In words: In vivo mouse AAV model: CD8 TEM and lacZ tetramer staining of PBMCs and splenocytes. As to conditions: chow 30 mg/kg from 15 days prior to AAV injection; day 14 post AAV; versus AAV group; N=10. As to the method: In-vivo mice experiments. C57BL/6J mice were purchased from Jackson Laboratories. 6-8-week male mice were divided into 3 groups—PBS group, AAV group and AAV+IRAK4 group all groups with 10 mice each. Zimlovisertib IRAK4 inhibitor (Synonyms: PF-06650833) Cat. No.: HY-19836 (MedChemExpress) was mixed with mouse chow Catalog #2016, Teklad Global 16% Protein Rodent Diets https://www.inotivco.com/rodent-natural-ingredient-2016-diets at a dose of 30 mg/kg. AAV+IRAK4 group was fed the chow with Zimlovisertib IRAK4 inhibitor 15 days prior to AAV injection whereas PBS and AAV group were fed with mouse chow Catalog #2016, Teklad Global 16% Protein Rodent Diets https://www.inotivco.com/rodent-natural-ingredient-2016-diets. PBS group mice were injected intramuscularly with 100 ul PBS, AAV group was injected intramuscularly with 1e11 vg per quadricep muscle of both legs, 100 ul volume.
The same experiment design was followed with n=6 mice in each group PBS group, AAV group and AAV+IRAK4 degrader PROTAC IRAK4 degrader-1 Cat. No.: HY-129966 (MedChemExpress) that was mixed with chow at 100 mg/kg and fed to mice 15 days prior to AAV injection. […] AAV capsid used in the study had LacZ transgene. All animal experiments were conducted in accordance with the Institutional Animal Care and Use Committees at Sanofi, Framingham. Submandibular bleeds were performed weekly, and necropsy was performed three weeks post AAV injection.
PBMC isolation and surface staining. 120 ul blood was collected in K2EDTA coated tubes. The blood was mixed with DBPS at 1:1 ration and pipetted into a separate tube containing Ficoll (GE17-5442-02) to ensure no mixing of the blood and Ficoll phases. The mixture was centrifuged at 2000 RPM for 25 minutes at room temperature (9 acceleration and no braking). The buffy coat containing the peripheral blood mononuclear cells (PBMCs) was collected, transferred to a new tube, and centrifuged for five minutes at 400 RCF. PBMCs were washed three times with phosphate buffered saline (PBS) containing 1% fetal bovine serum (FBS) or fetal calf serum (FCS) and counted. The PBMC cells thus obtained were stained with different antibodies to quantify percentage of different immune cell subsets in peripheral blood.
PBMC CD8 TEM and lacZ tetramer staining. The PBMC was isolated from ˜120 μl of mouse blood, and it was transferred to a 96-well U-bottom plate. […]

As for `O=C1CCC(N2C(=O)c3cccc(NCc4cn(CCCNC(=O)c5ccc(-n6cc(NC(=O)c7coc(-c8ccnc(NCC9CC9)c8)n7)c(C(F)(F)F)n6)cc5)cn4)c3C2=O)C(=O)N1` (stereo not drawn) [PROTAC IRAK4 degrader-1], the “IRAK4 levels (IRAK4 degradation) in cell lysates” value at IRAK4 protein was “reduction of IRAK4 levels at all doses”. Take `CC[C@@H]1[C@H](F)C(=O)N[C@@H]1COc1nccc2cc(C(N)=O)c(OC)cc12` [zimlovisertib, 1-[[(2S,3S,4S)-3-Ethyl-4-fluoro-5-oxo-2-pyrrolidinyl]methoxy]-7-methoxy-6-isoquinolinecarboxamide]: in test [1], the “CD44+CD62L+ effector memory cells in PBMCs” value is given as “significant reduction” and the “LacZ tetramer positive CD8 T cells in PBMCs” value is “significant reduction”.
